Assay results from PubChem BioAssay (NCI).
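How tested: cells in 96-well plates exposed to compound for 48 hours at five concentrations. TGI is the concentration that stops growth completely.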

How the values were obtained:
Assay in all cases: NCI anticancer screen, dose series, 48 h
[1] = test system: COLO 205 colon
[2] = test system: SNB-19 CNS
[3] = test system: NCI-H23 lung
[4] = test system: DU-145 prostate
[5] = test system: MDA-MB-231 breast
[6] = test system: HS 578T breast
[7] = test system: HOP-92 NSCLC
[8] = test system: A498 renal
[9] = test system: OVCAR-3 ovarian
[10] = test system: SF-295 CNS
[11] = test system: CCRF-CEM leukemia
[12] = test system: K-562 leukemia

With `COc1ccc(/C=C2/C(=O)C(c3ccccc3)N(c3ccccc3)C2=O)cc1OC` (stereo unspecified) the TGI [1] was over 10 µM, the TGI [2] was over 10 µM and the TGI [3] was over 10 µM. The TGI [4] was over 10 µM, the TGI [5] was over 10 µM and the TGI [6] was over 10 µM. It also gave a TGI [7] of over 10 µM, a TGI [8] of 2.75 µM and a TGI [9] of over 10 µM. For the same compound, the TGI [10] was over 10 µM and the TGI [11] was over 10 µM.
`CN1CCN2CCN(C)CCN(CC1)CC2` was tested, and the TGI [1] was over 100 µM, the TGI [2] was over 100 µM and the TGI [3] was over 100 µM. The TGI [4] was over 100 µM, the TGI [5] was over 100 µM and the TGI [6] was over 100 µM. It also gave a TGI [12] of over 100 µM, a TGI [7] of over 100 µM and a TGI [8] of over 100 µM. The TGI [9] was over 100 µM, the TGI [10] was over 100 µM and the TGI [11] was over 100 µM.
`COc1ccc(/C=C2\NC(=S)N(CN3CCOCC3)C2=O)cc1` showed a TGI [1] of over 100 µM, a TGI [2] of over 100 µM and a TGI [3] of over 100 µM. It also gave a TGI [4] of over 100 µM, a TGI [5] of over 100 µM and a TGI [6] of over 100 µM. It also gave a TGI [12] of over 100 µM, a TGI [7] of over 100 µM and a TGI [8] of over 100 µM. For the same compound, the TGI [9] was over 100 µM, the TGI [10] was over 100 µM and the TGI [11] was over 100 µM.
In the case of `Cc1nc2c(ccc3[nH]c4ccccc4c32)s1`, the TGI [1] is reported as 37.8 µM, the TGI [2] is reported as over 100 µM and the TGI [3] is reported as 91.7 µM. It also gave a TGI [4] of over 100 µM, a TGI [5] of 36.4 µM and a TGI [6] of 46.5 µM. The TGI [12] was over 100 µM, the TGI [7] was 45.4 µM and the TGI [8] was 34.9 µM. For the same compound, the TGI [9] was 64.1 µM and the TGI [11] was over 100 µM.
`C[C@@H](Br)[C@@H]1CC[C@H]2c3[nH]c4ccccc4c3CCN2C1` gave a TGI [1] of 26.3 µM, a TGI [2] of 43.9 µM and a TGI [3] of 67.1 µM. The TGI [4] was over 100 µM, the TGI [5] was 41.1 µM and the TGI [6] was 33.9 µM. For the same compound, the TGI [12] was 38.6 µM, the TGI [7] was 65.2 µM and the TGI [8] was over 100 µM. It also gave a TGI [9] of 42.4 µM, a TGI [10] of 47.8 µM and a TGI [11] of 54.8 µM.
With `COc1ccc(OC)c2c1-c1nnnn1CCC2(C)C` the TGI [1] was over 100 µM, the TGI [2] was over 100 µM and the TGI [3] was over 100 µM. For the same compound, the TGI [4] was over 100 µM, the TGI [5] was over 100 µM and the TGI [6] was over 100 µM. The TGI [12] was over 100 µM, the TGI [7] was over 100 µM and the TGI [8] was over 100 µM. For the same compound, the TGI [9] was over 100 µM, the TGI [10] was over 100 µM and the TGI [11] was over 100 µM.
Work on `CC(C)[Si](CC1=CCCCC12C(=O)N(COCC[Si](C)(C)C)c1ccccc12)(C(C)C)C(C)C` (stereo unspecified) yielded a TGI [1] of over 100 µM, a TGI [2] of over 100 µM and a TGI [3] of over 100 µM. The TGI [4] was over 100 µM, the TGI [5] was over 100 µM and the TGI [6] was over 100 µM. The TGI [12] was over 100 µM, the TGI [7] was over 100 µM and the TGI [8] was over 100 µM. It also gave a TGI [9] of over 100 µM, a TGI [10] of over 100 µM and a TGI [11] of 36.6 µM.
`c1ccc2c[n+](Cc3ccnc4ccccc34)ccc2c1` was tested, and the TGI [1] was over 100 µM, the TGI [2] was over 100 µM and the TGI [3] was over 100 µM. It also gave a TGI [4] of over 100 µM, a TGI [5] of over 100 µM and a TGI [6] of over 100 µM. The TGI [12] was over 100 µM, the TGI [7] was over 100 µM and the TGI [8] was over 100 µM. For the same compound, the TGI [9] was over 100 µM, the TGI [10] was over 100 µM and the TGI [11] was over 100 µM.
Compound `Oc1ccccc1/C=N/N1C(=S)N(c2ccccc2)C(=Nc2ccccc2)C1=Nc1ccccc1` has a TGI [1] of 11.3 µM, a TGI [2] of 20.7 µM and a TGI [3] of 24.9 µM. It also gave a TGI [4] of over 68.3 µM, a TGI [5] of 24.1 µM and a TGI [6] of 37.7 µM. The TGI [12] was over 64.7 µM, the TGI [7] was 16.3 µM and the TGI [8] was 17.2 µM. The TGI [9] was 28.2 µM, the TGI [10] was 23.2 µM and the TGI [11] was over 62.9 µM.
